In experiment [1] the target is T1, Tyrosine-protein kinase TXK (Homo sapiens) (UniProt P42681).
T1 sequence (whole entry): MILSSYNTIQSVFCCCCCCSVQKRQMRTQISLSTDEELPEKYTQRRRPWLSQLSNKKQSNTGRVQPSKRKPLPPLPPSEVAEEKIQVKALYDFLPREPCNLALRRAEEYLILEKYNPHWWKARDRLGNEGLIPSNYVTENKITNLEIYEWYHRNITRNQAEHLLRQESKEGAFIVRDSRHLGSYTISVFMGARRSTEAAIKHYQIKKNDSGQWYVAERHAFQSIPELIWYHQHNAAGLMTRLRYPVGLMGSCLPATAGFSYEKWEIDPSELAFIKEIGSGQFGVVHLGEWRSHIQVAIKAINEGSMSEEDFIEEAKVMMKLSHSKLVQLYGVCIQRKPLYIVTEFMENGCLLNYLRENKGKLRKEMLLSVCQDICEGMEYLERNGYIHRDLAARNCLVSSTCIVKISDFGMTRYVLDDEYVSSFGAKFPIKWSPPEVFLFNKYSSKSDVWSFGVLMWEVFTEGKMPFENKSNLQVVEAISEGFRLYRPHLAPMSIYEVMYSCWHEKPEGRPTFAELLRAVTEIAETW
The experiment can be described thus: Selectivity interaction (ProQinase) EUB0000171b TXK.

Experiment [2] deals with T2, Serine/threonine-protein kinase NLK (Homo sapiens) (UniProt Q9UBE8).
T2 sequence (whole entry): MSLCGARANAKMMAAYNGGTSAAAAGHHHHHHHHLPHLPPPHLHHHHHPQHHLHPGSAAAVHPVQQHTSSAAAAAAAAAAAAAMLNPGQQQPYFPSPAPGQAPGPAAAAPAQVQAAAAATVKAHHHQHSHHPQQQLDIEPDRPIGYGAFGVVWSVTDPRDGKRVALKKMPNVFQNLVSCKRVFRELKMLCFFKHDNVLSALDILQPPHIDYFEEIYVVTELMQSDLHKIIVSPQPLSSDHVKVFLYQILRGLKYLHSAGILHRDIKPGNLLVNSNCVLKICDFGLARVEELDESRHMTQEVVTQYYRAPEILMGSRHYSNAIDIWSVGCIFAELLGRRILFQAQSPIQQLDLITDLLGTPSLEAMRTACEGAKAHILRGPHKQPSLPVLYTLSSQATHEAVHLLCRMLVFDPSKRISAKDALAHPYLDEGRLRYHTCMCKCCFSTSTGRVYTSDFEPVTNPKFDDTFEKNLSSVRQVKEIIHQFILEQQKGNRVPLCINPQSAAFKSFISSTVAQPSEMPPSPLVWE
The experiment can be described thus: Selectivity interaction (KinomeScan (DiscoverX)) EUB0000695a NLK. The conditions noted are these: at 100 nM.

Experiment [3] deals with Tyrosine-protein kinase Lck (Homo sapiens, UniProt P06239). The experiment can be described thus: Selectivity interaction (Kinase screening (Upstate/Millipore)) EUB0000604a LCK.
The target of experiment [4] is T3, SNF-related serine/threonine-protein kinase (Homo sapiens) (UniProt Q9NRH2).
T3 sequence (whole entry): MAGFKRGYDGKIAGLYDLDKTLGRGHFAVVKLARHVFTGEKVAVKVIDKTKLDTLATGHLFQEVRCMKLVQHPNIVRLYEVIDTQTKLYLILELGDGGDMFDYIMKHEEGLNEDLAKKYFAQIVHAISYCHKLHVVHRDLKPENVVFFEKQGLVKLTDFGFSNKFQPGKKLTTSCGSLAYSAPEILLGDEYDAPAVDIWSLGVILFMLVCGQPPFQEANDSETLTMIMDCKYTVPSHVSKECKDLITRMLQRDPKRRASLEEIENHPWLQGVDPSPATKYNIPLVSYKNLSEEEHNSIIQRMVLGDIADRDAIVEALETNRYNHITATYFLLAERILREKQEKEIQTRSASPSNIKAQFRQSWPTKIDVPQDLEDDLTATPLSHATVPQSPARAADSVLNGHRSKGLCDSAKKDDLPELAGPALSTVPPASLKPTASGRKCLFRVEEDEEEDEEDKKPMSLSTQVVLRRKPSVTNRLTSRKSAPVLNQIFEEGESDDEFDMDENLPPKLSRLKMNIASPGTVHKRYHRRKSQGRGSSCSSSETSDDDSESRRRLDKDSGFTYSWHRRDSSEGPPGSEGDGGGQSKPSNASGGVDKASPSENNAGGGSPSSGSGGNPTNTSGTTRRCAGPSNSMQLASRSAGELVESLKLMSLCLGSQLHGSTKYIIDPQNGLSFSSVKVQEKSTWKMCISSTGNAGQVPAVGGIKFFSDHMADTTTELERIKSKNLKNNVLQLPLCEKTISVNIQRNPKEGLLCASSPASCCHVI
The experiment can be described thus: Selectivity interaction (ActivX KiNativ screen (kinase selectivity in THP-1 cell lysates)) EUB0000639a SNRK. Type of experiment: subcellular. The conditions noted are these: lysate, at 1 µM.

In experiment [5] the target is T4, Tyrosine-protein kinase ITK/TSK (Homo sapiens) (UniProt Q08881).
T4 sequence (whole entry): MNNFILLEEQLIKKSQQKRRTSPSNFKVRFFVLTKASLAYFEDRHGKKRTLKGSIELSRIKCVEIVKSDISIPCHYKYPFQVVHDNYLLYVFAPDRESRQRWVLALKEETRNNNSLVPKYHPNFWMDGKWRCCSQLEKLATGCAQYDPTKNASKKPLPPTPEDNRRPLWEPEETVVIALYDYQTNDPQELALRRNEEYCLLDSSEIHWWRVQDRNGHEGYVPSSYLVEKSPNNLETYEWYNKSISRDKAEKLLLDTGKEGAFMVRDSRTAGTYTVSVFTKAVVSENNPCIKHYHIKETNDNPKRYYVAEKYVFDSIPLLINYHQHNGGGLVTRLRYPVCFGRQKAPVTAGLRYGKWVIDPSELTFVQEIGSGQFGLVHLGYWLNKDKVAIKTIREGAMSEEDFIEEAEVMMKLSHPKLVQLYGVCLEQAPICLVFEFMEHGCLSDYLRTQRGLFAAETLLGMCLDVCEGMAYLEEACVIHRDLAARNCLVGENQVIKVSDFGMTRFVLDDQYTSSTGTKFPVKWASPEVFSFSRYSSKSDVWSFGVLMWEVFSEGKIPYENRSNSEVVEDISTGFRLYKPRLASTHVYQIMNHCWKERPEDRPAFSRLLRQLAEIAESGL
The experiment can be described thus: Selectivity interaction (Kinase panel (Invitrogen)) EUB0000639a ITK. The conditions noted are these: at 200 nM.

Sequence of Tyrosine-protein kinase Lck (P06239 2-509 limits assumed): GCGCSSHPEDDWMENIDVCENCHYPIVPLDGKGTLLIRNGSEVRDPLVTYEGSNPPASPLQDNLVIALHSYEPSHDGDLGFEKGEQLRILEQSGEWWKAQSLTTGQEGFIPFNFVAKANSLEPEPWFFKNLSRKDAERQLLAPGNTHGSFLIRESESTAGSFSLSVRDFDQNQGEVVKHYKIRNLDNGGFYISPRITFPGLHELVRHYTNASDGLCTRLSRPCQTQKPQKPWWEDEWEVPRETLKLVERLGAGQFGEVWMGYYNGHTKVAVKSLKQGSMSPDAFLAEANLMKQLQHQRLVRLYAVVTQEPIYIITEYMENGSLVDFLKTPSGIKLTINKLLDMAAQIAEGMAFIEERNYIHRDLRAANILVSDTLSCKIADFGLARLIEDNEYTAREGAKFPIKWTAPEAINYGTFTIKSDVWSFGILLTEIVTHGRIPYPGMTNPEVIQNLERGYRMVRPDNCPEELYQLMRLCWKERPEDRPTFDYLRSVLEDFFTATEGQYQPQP

For the compound `C=CC(=O)Nc1cccc(C(=O)Nc2ccc(Nc3cc(-c4[nH]c(SC)nc4C)ccn3)cc2)c1`, the % of control came out at 87% in experiment [1] (at 1 µM) and 77% in experiment [1] (at 5 µM).

In experiment [2], `Cc1cc(F)c(C(=O)Nc2cccc(-c3nncn3C(C)C)n2)cc1-n1cnc(C2CC2)c1` returned a % of control of 96%.

For `Cc1cnc(Nc2ccc(F)cc2Cl)nc1-c1c[nH]c(C(=O)N[C@H](CO)c2cccc(Cl)c2)c1`, the % of inhibition in experiment [3] was 3%.

In the case of `CC[C@@H]1[C@H](F)C(=O)N[C@@H]1COc1nccc2cc(C(N)=O)c(OC)cc12` [ZIMLOVISERTIB], the % of inhibition in experiment [4] was 2.6%; in experiment [5], -1.94%.

For the origin of these results see ChEMBL document CHEMBL5465560, “Selectivity Literature for EUbOPEN Chemogenomic Library” (2024).
